Key:
Phaedon cochleariae = Phaedon cochleariae larvae test (cabbage leaf dip); conditions: Table B1, 200 ppm, mustard beetle larvae on cabbage leaves
Myzus persicae = Myzus persicae test (cabbage leaf dip); assay type: in vivo; conditions: 200 ppm
Source text: Solvent: 7 parts by weight of dimethylformamide

Cn1cc(C(=O)Nc2ccccc2C2CC2C2CC2)c(C(F)F)n1 (stereo not drawn) [compound (I-4)]
0%: Kill in % after 6d (Phaedon cochleariae) | Kill in % after 1d (Myzus persicae; Table A1, green peach aphid on cabbage leaves, after 1 d) | Kill in % after 6d (Myzus persicae; Table A2, after 6 d)
